Patent US20120197004A1, “NOVEL ANTI-MICROBIAL PEPTIDOMIMETIC COMPOUNDS AND METHODS TO CALCULATE ANTI-MICROBIAL ACTIVITY” (priority 2006, published 2012)
Values after ≈ are worked out from the molar mass of the structure shown. Where two headings read alike, the source gives them in different places. *1 amine or outer side, *2 acyl side, *3 side chain or, on linkers, in order; H or OH if unused. Where a SMILES comes first, the peptide text is derived from it. [ ]: non-standard residue; d: D form. ξ: configuration not given here. Oic = O=C(O)[C@@H]1C[C@@H]2CCCC[C@@H]2N1; Ethylenediamine = C(CN[*:2])N[*:1]; Tic = O=C(O)[C@@H]1Cc2ccccc2CN1; ξTic = O=C(O)C1Cc2ccccc2CN1; ξOic = O=C(O)C1CC2CCCCC2N1; GABA = NCCCC(=O)O

Assays:
[1] = tested on: Bacillus subtillis (ATCC 43223); settings: for p(MIC) Bacillus Subtillis: -log(MIC)
[2] = tested on: Staphylococcus aureus Methicillin/Gentamicin/Tetracycline Resistant (ATCC 33592); settings: for MIC Staphylococcus aureus ME/GM/TC resistant: Minimal Inhibitory Concentration, tested at 100-0.1 in 1% DMSO; for Minimum Inhibitory Concentration Staphylococcus aureus ME/GM/TC resistant: in vitro MIC, tested at 100, 30, 10, 3, 1, 0.3 and 0.1 μM in 1% DMSO; for p(MIC) Staphylococcus aureus ME/GM/TC resistant: -log(MIC); for Actual Bioactivity: p(MIC) used in Staphylococcus aureus QSAR model
in vitro [3] = settings: mouse, microsomes, pH 7.4
in vitro [4] = settings: dog, microsomes, pH 7.4
[5] = tested on: Salmonella typhimurium (ATCC 13311); settings: for p(MIC) Salmonella typhimurium: -log(MIC)
in vitro [6] = settings: monkey, microsomes, pH 7.4
[7] = tested on: Mycobacterium ranae (ATCC 110)
in vitro [8] = settings: rat, microsomes, pH 7.4
in vitro [9] = settings: human, microsomes, pH 7.4

Row | Structure (SMILES) | MIC Bacillus Subtillis ([1]; ATCC 43223) [µM] | MIC Staphylococcus aureus ME/GM/TC resistant [2] [µM] | Minimum Inhibitory Concentration Staphylococcus aureus ME/GM/TC resistant [2] [µM] | remaining at 0.25 h, 1 μM (in vitro [3]) [%] | remaining at 0.5 h, 1 μM (in vitro [3]) [%] | remaining at 1 h, 1 μM (in vitro [3]) [%] | remaining at 0.5 h, 1 μM (in vitro [4]) [%] | remaining at 1 h, 1 μM (in vitro [4]) [%] | MIC Salmonella typhimurium ([5]; ATCC 13311) [µM] | remaining at 0.25 h, 1 μM (in vitro [6]) [%] | remaining at 0.5 h, 1 μM (in vitro [6]) [%] | remaining at 1 h, 1 μM (in vitro [6]) [%] | MIC Mycobacterium ranae ([7]; ATCC 110) [µM] | Minimum Inhibitory Concentration Mycobacterium ranae ([7]; ATCC 110) [µM] | remaining at 0.25 h, 1 μM (in vitro [8]) [%] | remaining at 0.5 h, 1 μM (in vitro [8]) [%] | remaining at 1 h, 1 μM (in vitro [8]) [%] | % hemolysis 100/25 μM (first value) (red blood cells) [%/] | % hemolysis 100/25 μM (second value) (red blood cells) [%] | remaining at 0.25 h, 1 μM (in vitro [9]) [%] | other results
1 | CC(=O)N[C@@H](Cc1ccccc1)C(=O)N1Cc2ccccc2CC1C(=O)N1C(C(=O)N[C@@H](CCCCN)C(=O)N2Cc3ccccc3CC2C(=O)N2C(C(=O)N[C@@H](Cc3ccccc3)C(=O)N3Cc4ccccc4CC3C(=O)N3C(C(=O)N[C@@H](CCCCN)C(=O)N4Cc5ccccc5CC4C(=O)N[C@@H](CCCCN)C(=O)N[C@@H](CCCCN)C(=O)N[C@@H](CCCCN)C(=O)N[C@@H](CCCCN)C(N)=O)CC4CCCCC43)CC3CCCCC32)CC2CCCCC21 (stereo partly drawn) [FKAB-1Gc, Ac-F-Tic-Oic-K-Tic-Oic-F-Tic-Oic-K-Tic-KKKK-CONH2] (Ac-F[ξTic][ξOic]K[ξTic][ξOic]F[ξTic][ξOic]K[ξTic]KKKK-NH2) | 1.00 (≈ 2.21 µg/mL) | 3.00 (≈ 6.64 µg/mL) | 3 | 86 | 10 | 7 | 14 | 46 | 10 (≈ 22.1 µg/mL) | 17 | 24 | 75 | 30.00 (≈ 66.4 µg/mL) | 30 | 73 | 80 | 107 | 86.8 | 50 |  | 
2 | CC(=O)NCCCC(=O)N[C@@H](Cc1ccccc1)C(=O)N1Cc2ccccc2C[C@H]1C(=O)N1[C@H](C(=O)NCCCC(=O)N[C@@H](CCCCN)C(=O)N2Cc3ccccc3C[C@H]2C(=O)N2[C@H](C(=O)NCCCC(=O)N[C@@H](Cc3ccccc3)C(=O)N3Cc4ccccc4C[C@H]3C(=O)N3[C@H](C(=O)NCCCC(=O)N[C@@H](CCCCN)C(=O)N4Cc5ccccc5C[C@H]4C(=O)N[C@@H](CCCCN)C(=O)N[C@@H](CCCCN)C(=O)N[C@@H](CCCCN)C(=O)N[C@@H](CCCCN)C(=O)N[C@@H](CCCCN)C(N)=O)C[C@@H]4CCCC[C@@H]43)C[C@@H]3CCCC[C@@H]32)C[C@@H]2CCCC[C@@H]21 [FKAB-1Gd3, Ac-Gaba-F-Tic-Oic-Gaba-K-Tic-Oic-Gaba-F-Tic-Oic-Gaba-K-Tic-KKKKK-CONH2] (Ac-[GABA]F[Tic][Oic][GABA]K[Tic][Oic][GABA]F[Tic][Oic][GABA]K[Tic]KKKKK-NH2) | 1.00 (≈ 2.68 µg/mL) |  |  |  |  |  |  |  | 10 (≈ 26.8 µg/mL) |  |  |  | 3.00 (≈ 8.04 µg/mL) |  |  |  |  | 29.7 | 10.5 |  | Minimum Inhibitory Concentration Bacillus subtillis ([1]; ATCC 43223): 1 µM; p(MIC) Staphylococcus aureus ME/GM/TC resistant [2]: 4.52; Actual Bioactivity [2]: 4.520; Minimum Inhibitory Concentration Salmonella typhimurium ([5]; ATCC 13311): 10 µM; Actual Bioactivity [7]: 5.520; Minimum Inhibitory Concentration Mycobacterium ranae [7]: 3 µM; selectivity for Mycobacterium ranae over Salmonella typhimurium ([7]; in vitro): 3 fold
3 | CC(=O)NCC(=O)N[C@@H](Cc1ccccc1)C(=O)N1[C@H](C(=O)NCC(=O)N[C@@H](CCCCN)C(=O)N2[C@H](C(=O)NCC(=O)N[C@@H](Cc3ccccc3)C(=O)N3[C@H](C(=O)NCC(=O)N[C@@H](CCCCN)C(=O)N[C@@H](CCCCN)C(=O)N[C@@H](CCCCN)C(=O)N[C@@H](CCCCN)C(=O)N[C@@H](CCCCN)C(N)=O)C[C@@H]4CCCC[C@@H]43)C[C@@H]3CCCC[C@@H]32)C[C@@H]2CCCC[C@@H]21 [FKAB-1Gf, Ac-GF-Oic-GK-Oic-GF-Oic-GKKKKK-CONH2] (Ac-GF[Oic]GK[Oic]GF[Oic]GKKKKK-NH2) | 3.00 (≈ 5.41 µg/mL) |  |  |  |  |  |  |  | 100 (≈ 180 µg/mL) |  |  |  | 100.00 (≈ 180 µg/mL) |  |  |  |  | 5.9 | 3.2 |  | p(MIC) Bacillus Subtillis [1]: 5.52; Minimum Inhibitory Concentration Bacillus subtillis ([1]; in vitro MIC): 5.4 µg/mL; p(MIC) Staphylococcus aureus ME/GM/TC resistant [2]: 0.00; Actual Bioactivity [2]: 0.000; p(MIC) Salmonella typhimurium [5]: 4.00; Minimum Inhibitory Concentration Salmonella typhimurium ([5]; in vitro MIC): 180 µg/mL; Minimum Inhibitory Concentration Salmonella typhimurium ([5]; in vitro MIC, tested at 100, 30, 10, 3, 1, 0.3 and 0.1 μM in 1% DMSO): 100 µM; Actual Bioactivity [7]: 4.000; Minimum Inhibitory Concentration Mycobacterium ranae [7]: 100 μM/180 μg/mL; % hemolysis 100/25 μM (first value) (red blood cells; 100 μM): 5.9%
4 | CC(=O)NCC(=O)N[C@@H](Cc1ccccc1)C(=O)N[C@@H](Cc1ccccc1)C(=O)N1C(C(=O)NCC(=O)N[C@@H](CCCCN)C(=O)N[C@@H](Cc2ccccc2)C(=O)N2C(C(=O)NCC(=O)N[C@@H](Cc3ccccc3)C(=O)N[C@@H](Cc3ccccc3)C(=O)N3C(C(=O)NCC(=O)N[C@@H](CCCCN)C(=O)N[C@@H](Cc4ccccc4)C(=O)N[C@@H](CCCCN)C(=O)N[C@@H](CCCCN)C(=O)N[C@@H](CCCCN)C(=O)N[C@@H](CCCCN)C(N)=O)CC4CCCCC43)CC3CCCCC32)CC2CCCCC21 (stereo partly drawn) [FKAB-1Gh, Ac-GF-F-Oic-GK-F-Oic-GF-F-Oic-GK-F-KKKK-CONH2] (Ac-GFF[ξOic]GKF[ξOic]GFF[ξOic]GKFKKKK-NH2) | 1.00 (≈ 2.39 µg/mL) | 10.00 (≈ 23.9 µg/mL) | 10 | 36 | 71 | 112 | 103 | 60 | 10 (≈ 23.9 µg/mL) |  |  |  | 10.00 (≈ 23.9 µg/mL) | 10 |  |  | 0 | 27.30 | 8.9 | 92 | 
5 | CC(=O)NCC(=O)N[C@@H](Cc1ccccc1)C(=O)N1Cc2ccccc2CC1C(=O)N1C(C(=O)NCC(=O)N[C@@H](CCCCN)C(=O)N2Cc3ccccc3CC2C(=O)N2C(C(=O)NCC(=O)N[C@@H](Cc3ccccc3)C(=O)N3Cc4ccccc4CC3C(=O)N3C(C(=O)NCC(=O)N[C@@H](CCCCN)C(=O)N4Cc5ccccc5CC4C(=O)N[C@@H](CCCCN)C(=O)N[C@@H](CCCCN)C(=O)N[C@@H](CCCCN)C(=O)N[C@@H](CCCCN)C(=O)N[C@@H](CCCCN)C(N)=O)CC4CCCCC43)CC3CCCCC32)CC2CCCCC21 (stereo partly drawn) [FKAB-1Gi, Ac-GF-Tic-Oic-GK-Tic-Oic-GF-Tic-Oic-GK-Tic-KKKKK-CONH2] (Ac-GF[ξTic][ξOic]GK[ξTic][ξOic]GF[ξTic][ξOic]GK[ξTic]KKKKK-NH2) | 1.00 (≈ 2.57 µg/mL) | 3.00 (≈ 7.71 µg/mL) | 3 | 77 | 26 | 15 | 63 | 79 | 10 (≈ 25.7 µg/mL) | 72 | 75 | 99 | 3.00 (≈ 7.71 µg/mL) | 3 | 76 | 86 | 87 | 24.9 | 18.9 | 86 | 
6 | CC(=O)NCC(=O)N[C@@H](Cc1ccccc1)C(=O)N1Cc2ccccc2C[C@H]1C(=O)N1[C@H](C(=O)NCC(=O)N[C@@H](CCCCN)C(=O)N2Cc3ccccc3C[C@H]2C(=O)N2[C@H](C(=O)NCC(=O)N[C@@H](Cc3ccccc3)C(=O)N3Cc4ccccc4C[C@H]3C(=O)N3[C@H](C(=O)NCC(=O)N[C@@H](CCCCN)C(=O)N4Cc5ccccc5C[C@H]4C(=O)N[C@@H](CCCCN)C(=O)N[C@@H](CCCCN)C(=O)N[C@@H](CCCCN)C(=O)N[C@@H](CCCCN)C(=O)NCCN)C[C@@H]4CCCC[C@@H]43)C[C@@H]3CCCC[C@@H]32)C[C@@H]2CCCC[C@@H]21 [FKAB-1H, Ac-GF-Tic-Oic-GK-Tic-Oic-GF-Tic-Oic-GK-Tic-KKKK-CONH—CH2—CH2—NH2] (Ac-GF[Tic][Oic]GK[Tic][Oic]GF[Tic][Oic]GK[Tic]KKKK-Ethylenediamine) | 1.00 (≈ 2.48 µg/mL) | 3.00 (≈ 7.45 µg/mL) | 3 | 0 | 62 | 73 |  |  | 10 (≈ 24.8 µg/mL) | 0 | 0 | 0 | 10.00 (≈ 24.8 µg/mL) | 10 |  |  |  |  |  | 34 | p(MIC) Bacillus Subtillis [1]: 6.00; p(MIC) Staphylococcus aureus ME/GM/TC resistant [2]: 5.52; Actual Bioactivity [2]: 5.520; p(MIC) Salmonella typhimurium [5]: 5.00; Actual Bioactivity [7]: 5.000
7 | CC(C)NCC(O)COc1cccc2ccccc12 (stereo not drawn) [Propranolol, propranolol, reference compound] |  |  |  | 9 | 9 | 4 | 51 | 24 |  | 34 | 9 | 0.5 |  |  | 0.1 | 0.1 | 0.1 |  |  | 97 | remaining at 0.25 h, 1 μM (in vitro [4]): 76%; remaining at 0.5 h, 1 μM (in vitro [9]): 86%; remaining at 1 h, 1 μM (in vitro [9]): 72%
